According to publication PMC12608305, “Rapid Hemi-Synthesis of Multifunctional Amphiphilic Derivatives Based on Polyphenolic Extractives: Surface Activity, Antioxidant and Antibacterial Properties” (Molecules, 2025):
Converted amounts (≈) assume the structure as drawn. Like-named read-outs stand apart in the source and are kept apart here.

What was measured:
[1] = Surface tension in water by the Wilhelmy plate method (surfactant properties); assay type: physicochemical; settings: 25 °C; for Minimum occupied area per molecule at the air–water interface (σ): calculated from curve log C vs. γ; for Critical aggregation concentration (CAC): from curve log C vs. γ
Description: The surface tension (γ) in water was determined using the Wilhelmy plate method at 25 °C. […] With this curve, parameters such as critical aggregation concentration (CAC) and minimum occupied area per molecule at the air–water interface (σ) were calculated, as well as the surface tension that remains constant from CAC (γw).
Surface tension (γ) was obtained by the Wilhelmy plate method, using a Force Tensiometer KRUSS at 25 °C. […] The curve log C vs. γ allowed us to calculate critical aggregate concentration (CAC), minimum occupied area per molecule at the air–water interface (σ) and the surface tension (γw) that remains constant after the CAC was obtained. Each measurement was conducted in triplicate.

[2] = Water solubility by saturating water, lyophilizing and weighing; assay type: physicochemical; settings: thermodynamic from solid; saturated water
Description: Solubility in water was expressed in mol/L (M).

[3] = Radical scavenging activity by the DPPH method; assay type: biochemical; settings: DPPH 10^−4 M in methanol, triplicate
Description: This method measures the antioxidant capacity of a compound to reduce the purple-colored DPPH radical solution to yellow-colored DPPH-H. DPPH solution was prepared at a concentration of 10^−4 M in methanol. The IC50 was calculated using the formula IC50 = (y − b)/a obtained from the equation of the line y = ax + b where a is the directing coefficient and b the y-intercept. Each measurement was conducted in triplicate.

Escherichia coli = assay: Antibacterial activity by resazurin reduction test; assay type: cell-based; settings: fluorescence over 72 h, compounds in DMSO, triplicate, read-out: Antibacterial Activity Against E. coli: IC50
Description: These properties are usually studied by dilution and disk diffusion assay. The resazurin test is another method that can be used for measuring antibacterial activity. It is a protocol based on cell viability assays. […] This process leads to the formation of a pink fluorescent substance called resorufin. This reduction allows bacterial metabolic activity to be measured directly by measuring fluorescence. This is used to determine the antibacterial activity of the compounds being tested, using a fluorescence microplate reader. The lower the resorufin production, the lower the measured fluorescence and the higher the antibacterial activity.
Resazurin is a blue colorant that reduces to the fluorescent pink resorufin when metabolized by the cells from bacterial respiratory chains. The metabolic activity of the cells was measured by reading the fluorescence over 72 h using a BioTek FLx800 Fluorescence Microplate Reader.
Strains of Escherichia coli were cultured for 12 h on solid LB medium (Luria–Bertani) at 35 °C. The next day, some colonies were taken and placed in a nutrient broth and incubated at 35 °C until an optical density of 0.4 was obtained. […] A control with ethoxyethanol was performed. A positive control to verify the growth of the bacteria in the absence of catechin or hemi-synthesis compound was performed as well. The IC50 was calculated using the formula IC50 = (y − b)/a obtained from the equation of the line y = ax + b, where a is the directing coefficient and b the y-intercept. Each measurement was conducted in triplicate.

[4] = set-up: method as in doi:10.1016/j.fluid.2014.09.013; settings: anhydrous catechin; cited from earlier work
E. coli = system: E. coli; set-up: method as in PMID 743641; settings: cited from earlier work
[5] = DPPH; cited from earlier work

Surface tension from CAC (γw) [1] [mN/m] | Minimum occupied area per molecule at the air–water interface (σ) [1] [Å^2/molecule] | Critical aggregation concentration (CAC) [1] [µM] | solubility [2] [µM] | Compound | Radical Scavenging Activity: IC50 [5] [µg/mL] | other results
32 | 45 | 2 | 22 (≈ 13.2 µg/mL) | CCCCCCCCCCCCCCCC(=O)N[C@@H](C)C(=O)OC1Cc2c(O)cc(O)cc2OC1c1ccc(O)c(O)c1 (stereo partly shown) [7d, 2-(3,4-Dihydroxyphenyl)-5,7-dihydroxychroman-3-yl hexadecanoylalaninate] | – | Radical Scavenging Activity: IC50 [3]: 26.73 ± 0.43 µg/mL
43 | 14 | 890 | 6000 (≈ 2500 µg/mL) | CCCCCCCC(=O)OC1Cc2c(O)cc(O)cc2OC1c1ccc(O)c(O)c1 (stereo not shown) [6a, 2-(3,4-Dihydroxyphenyl)-5,7-dihydroxychroman-3-yl octanoate] | – | –
33 | 19 | 40 | 580 (≈ 332 µg/mL) | CCCCCCCCCCCCCC(=O)N[C@@H](C)C(=O)OC1Cc2c(O)cc(O)cc2OC1c1ccc(O)c(O)c1 (stereo partly shown) [7c, 2-(3,4-Dihydroxyphenyl)-5,7-dihydroxychroman-3-yl tetradecanoylalaninate] | – | IC50 (Escherichia coli): 23 ± 1 mM; Radical Scavenging Activity: IC50 [3]: 2.01 ± 0.05 µg/mL
32 | 10 | 50 | 360 (≈ 196 µg/mL) | CCCCCCCCCCCC(=O)N[C@@H](C)C(=O)OC1Cc2c(O)cc(O)cc2OC1c1ccc(O)c(O)c1 (stereo partly shown) [7b, 2-(3,4-Dihydroxyphenyl)-5,7-dihydroxychroman-3-yl dodecanoylalaninate] | – | IC50 (Escherichia coli): 34 ± 3 mM; Radical Scavenging Activity: IC50 [3]: 2.42 ± 0.06 µg/mL
49 | 17 | 680 | 4800 (≈ 2270 µg/mL) | CCCCCCCCCCCC(=O)OC1Cc2c(O)cc(O)cc2OC1c1ccc(O)c(O)c1 (stereo not shown) [6b, 2-(3,4-Dihydroxyphenyl)-5,7-dihydroxychroman-3-yl dodecanoate] | – | –
35 | 8 | 100 | 1300 (≈ 634 µg/mL) | CCCCCCCC(=O)N[C@@H](C)C(=O)OC1Cc2c(O)cc(O)cc2OC1c1ccc(O)c(O)c1 (stereo partly shown) [7a, 2-(3,4-Dihydroxyphenyl)-5,7-dihydroxychroman-3-yl octanoylalaninate] | – | IC50 (Escherichia coli): 32 ± 3 mM; Radical Scavenging Activity: IC50 [3]: 2.06 ± 0.04 µg/mL
– | – | – | – | Oc1cc(O)c2c(c1)O[C@H](c1ccc(O)c(O)c1)[C@@H](O)C2 [Catechin, (+)-catechin, reference compound] | – | IC50 (Escherichia coli): 36 ± 2 mM; Water Solubility [4]: 15700 µM; Radical Scavenging Activity: IC50 [3]: 2.43 ± 0.03 µg/mL
– | – | – | – | COc1ccc(O)c(C(C)(C)C)c1 [BHA, Butylated hydroxyanisole] | 21.3 ± 0.12 | growth of E. coli (E. coli; at concentrations above 100 μg/mL): 33%
– | – | – | – | Cc1cc(C(C)(C)C)c(O)c(C(C)(C)C)c1 [BHT, Butylated hydroxytoluene] | 12.8 ± 0.08 | effect on growth of E. coli (E. coli; regardless of the concentration): fails to decrease the growth of E. coli
41 | 23 | 590 | 4800 (≈ 2400 µg/mL) | CCCCCCCCCCCCCC(=O)OC1Cc2c(O)cc(O)cc2OC1c1ccc(O)c(O)c1 (stereo not shown) [6c, 2-(3,4-Dihydroxyphenyl)-5,7-dihydroxychroman-3-yl tetradecanoate] | – | –
– | – | – | – | O=C(O)c1cc(O)c(O)c(O)c1 [gallic acid] | 2.04 ± 0.03 | –
– | – | – | – | COc1cc(C[C@@H](CO)[C@H](CO)Cc2ccc(O)c(OC)c2)ccc1O [secoisolariciresinol] | 9.39 ± 0.01 | –
42 | 29 | 10 | 240 (≈ 127 µg/mL) | CCCCCCCCCCCCCCCC(=O)OC1Cc2c(O)cc(O)cc2OC1c1ccc(O)c(O)c1 (stereo not shown) [6d, 2-(3,4-Dihydroxyphenyl)-5,7-dihydroxychroman-3-yl hexadecanoate] | – | –
– | – | – | – | O=C(O)/C=C/c1ccc(O)c(O)c1 [caffeic acid] | 10.64 | –
– | – | – | – | O=c1c(O)c(-c2ccc(O)c(O)c2)oc2cc(O)cc(O)c12 [quercetin] | 1.59 ± 0.02 | –
– | – | – | – | O=C1c2c(O)cc(O)cc2OC(c2ccc(O)c(O)c2)C1O (stereo not shown) [taxifolin] | 10.06 ± 1.08 | –
– | – | – | – | O=C(OC[C@H]1O[C@@H](OC(=O)c2cc(O)c(O)c(OC(=O)c3cc(O)c(O)c(O)c3)c2)[C@H](OC(=O)c2cc(O)c(O)c(OC(=O)c3cc(O)c(O)c(O)c3)c2)[C@@H](OC(=O)c2cc(O)c(O)c(OC(=O)c3cc(O)c(O)c(O)c3)c2)[C@@H]1OC(=O)c1cc(O)c(O)c(OC(=O)c2cc(O)c(O)c(O)c2)c1)c1cc(O)c(O)c(OC(=O)c2cc(O)c(O)c(O)c2)c1 [tannic acid] | 23.65 | –
